According to US5487899A, “Wound healing” (Jess Clarke & Sons, Inc., priority 1994, dated 1996):

Tests used:
[1] = tested on: open wounds; test: Open wound healing assay (Example 5); type: in vivo, ICR mice; details: daily subcutaneous, Saline control 60.0 ± 8.3
Procedure: Adult male ICR mice (30 g, 15 animals/group) were anesthetized with ether and shaved on both sides of the back. A sterile 6 mm Baker biopsy punch was used to induce a wound on each side of the vertebral column. Anterior-posterior wound diameter measurements were made using a vernier caliper on days 0, 4 and 7. Three treatment groups received daily subcutaneous injections of a gibberellic acid (GA3) solution at dosages of 2, 10 and 100 mg/Kg, respectively. Control mice received daily injections of saline on a 10 ml/Kg basis. Standard errors for each mean value was calculated. The student's "t" test was used to determine significant differences between treatment and control groups. An analysis of variance (ANOVA) was also calculated to determine the statistical significance of the study as a whole, and gave a Fisher ratio at 16.48 which is significant at p<0.001.

[2] = tested on: wound; test: Wound tensile strength assay (Example 6); type: in vivo,  mice; details: 50 mg/kg (each) × 4, subcutaneous, 6 h after day 4 injection
Procedure: While tensile strength of wounds is measured in terms of the load applied per unit of cross section area, the breaking strength is the measure of force required to break a wound of tissue without regard to dimensions. While tensile strength is not a function of the incision length, breaking strength is. The measurements of force required to pull a wound apart differ chiefly in the manner in which the force is applied and the sophistication of the force measurement. In the data recorded herein and in the data collected in the making of the present invention, we used a conventional plastic syringe calibrated to measure […] of air injected into the peritoneal cavity of the mouse. […] Elastic bands are first placed on over the shoulders and hips of the animal to contain the injected air into a defined area of the body and to reduce error involving underlying tissue of the peritoneal cavity, and air is injected into the animal until the wound is disrupted at which time the volume of air is recorded. […]
Each wound was closed with a 9 mm wound clip at 0.25-inch spacings for a total of 3 clips per wound. […] Six hours after the day 4 injection, the tensile strength of wounds was measured by injecting air into the peritoneal cavity from a syringe as described above.

[3] = tested on: croton oil-induced ear swelling; test: croton oil-induced ear swelling (Example 4); type: in vivo, ICR-HSD mice; details: Aspirin 100 μg, topical, 6 h
Procedure: Four groups (10 mice per group) of adult male ICR-HSD mice was given topically 25 μg/per 10 μl croton oil solutions. This irritant was applied to the inner surface of the animal's right ear, and the left ear was not treated and used as a control. One-half hour after the application of the croton oil irritant, solutions were added topically to reduce inflammation; the solutions were 1% aspirin, 2% Aloe and a solution that had both aspirin and aloe.
Six hours after the topical application of croton oil solutions, a 6 mm biopsy punch specimen was taken from each ear, weighed, and the weight differences between the two were compared to determine the amount of inflammation remaining on the right ear.

Structure (SMILES) | decrease (%) in wound diameter ([1]; 2 mg/kg) [%] | decrease (%) in wound diameter ([1]; 10 mg/kg) [%] | decrease (%) in wound diameter ([1]; 100 mg/kg) [%] | increase (%) in wound tensile strength [2] [%] | Inhibition (%) of croton oil-induced ear swelling [3] [%]
C=C1C[C@]23C[C@@]1(O)CC[C@H]2[C@@]12C=C[C@H](O)[C@@](C)(C(=O)O1)[C@H]2[C@@H]3C(=O)O [Gibberellin, gibberellic acid] | 65.3 ± 11.3 | 71.6 ± 12.1 | 81.7 ± 7.0 | 36.1 ± 1.5 | –
CC(=O)Oc1ccccc1C(=O)O [Aspirin] | – | – | – | – | 23.7 ± 3.1
